Measurements as given in patent US6517870B1, “Oral formulation comprising biguanide and an organic acid” (Sumitomo Pharmaceuticals Company, Limited, priority 1998, dated 2003).
Where a name gives a salt, the structure may show the parent alone.

Test: Stability experiment: remaining amount of metformin by HPLC after heating
Assay type: physicochemical
Settings: below pH 3.5
Description: Tasting and stability experiments on the solutions at various pH of Example 13 were carried out, in the same manner as Experiment 1. A stability experiment was carried out by measuring the remaining amount of metformin in the solutions with HPLC after heating the solutions in vials at 60 C. for 2 weeks.

- stability in solution: not stable
SMILES: CN(C)C(=N)N=C(N)N [Metformin hydrochloride]
